Measured values from patent publication US6989158B1, “Gold-containing chemotherapeutic agents” (The Curators of the University of Missouri, priority 1999, dated 2006).

Assays:
[1] = tested on: interperitoneal P388 leukemia; conditions: in vivo; cited from earlier work
[2] = Deaths of tumor bearing mice at larger doses; format: in vivo; conditions: doses significantly larger than in the table (20–25 μg/kg)
[3] = tested on: Meth/A cells; assay: In vivo study, survival of Meth/A tumor bearing mice; set-up: species or system Balb/C mice
[4] = tested on: HCT-15 cells; assay: Histogram (cell cycle) studies; format: cell-based; conditions: 200 or 40 μg/ml, two days incubation
Protocol: Histogram studies were carried out using HCT-15 cells. In the enclosed figure that summarize histogram results the cells are numbered as follows: HCT-80 is the control; HCT-81 refers to a sample with 200 μg/ml of the gold compound; HCT-82 refers to a sample with 40 μg/ml of gold compound.
HCT-15 cells were incubated in 5% CO2 incubator for two days. Then the cells were harvested and analyzed using fluorescent techniques. […] This finding is in sharp contrast to he cytotoxic side effects of cisplatin which is known to cause disassociation of many phases. Additionally, most agents which are cytotoxic, block S or M+G2 phase after culturing for two days. The mode of cell suppression via G1 phase elongation, as observed for the gold compound, therefore functions differently.

[5] = Side effects in mice models; format: in vivo; conditions: preliminary findings
[6] = tested on: cells derived from human colon carcinoma; assay: in vitro tumor growth suppression, cells derived from human colon carcinoma; format: cell-based; conditions: specific human cancer cell lines
From the text: When the non-radioactive analogue of the gold complex of THP [(Au(THP)4)]

[7] = tested on: solid tumor models; conditions: in vivo; cited from earlier work
[8] = tested on: peritoneal cancer cells; conditions: in vivo; cited from earlier work
[9] = in vivo; cited from earlier work

In the case of CC[PH](CC)(CC)[Au][S][C@@H]1O[C@H](COC(C)=O)[C@@H](OC(C)=O)[C@H](OC(C)=O)[C@H]1OC(C)=O [Auranofin, (2,3,4,6-tetra-O-aceytl-1-thio-β-D-glucopyranosato-S)-(triethylphosphine) gold(I)], the “activity against interperitoneal P388 leukemia” value [1] is given as “active”.

With N.N.[Cl][Pt][Cl] [Cisplatin, cisplatin] the “deaths of tumor bearing mice” value [2] was “resulted in the death of animals”.

With OCP(CO)CO.OCP(CO)CO.OCP(CO)CO.OCP(CO)CO.[Au+].[Cl-] [[Au(THP)4]Cl] the “survival of tumor bearing mice” value [3] was “remarkable survival of tumor bearing mice”, the “effect on G1 phase of the cell cycle” value [4] was “elongates G1 phase” and the “deaths of tumor bearing mice” value [2] was “did not result in deaths of tumor bearing mice”. For the same compound, the toxic side effects [5] was “no toxic cardiovascular or naphrotoxic side effects” and the tumor cell suppression [6] was “remarkable activity in suppressing tumor growth”.

In the case of [Au+].[Cl-].c1ccc(P(CCP(c2ccccc2)c2ccccc2)c2ccccc2)cc1.c1ccc(P(CCP(c2ccccc2)c2ccccc2)c2ccccc2)cc1 [[Au(dppe)2]Cl], the “activity against solid tumor models” value [7] is given as “only slightly active”, the “activity against peritoneal cancer cells” value [8] is given as “marked activity” and the “toxicity in preclinical toxicology studies” value [9] is given as “cardiotoxicity”.
